Experimental data taken from patent publication US20200392150A1, “Diaryl-B-Lactam Compound and Preparation Method and Pharmaceutical Use Thereof” (Fudan University, priority 2016, published 2020).
pIC50: −log10 of the molar value. Like-named read-outs stand apart in the source and are kept apart here.

Experiments:
Test in all cases: In vitro cell growth inhibition assay (MTT)
Type in all cases: cell-based, human
[1] = tested on: MDA-MB-231; details: read-out: IC50 MDA-MB-231
Description: (§1) 5000 tumor cells per well were seeded into 96-well plate and allowed to adhere overnight. Cells were treated with various concentrations of tested compounds or DMSO (0.2%, as negative control) for 48 h. Then, the medium along with tested compounds or DMSO was discarded and […] per well MTT containing medium (0.5 mg/mL) was added. After incubation at 37° C. for 4 h, the MTT-containing medium was replaced by DMSO (150 μL per well) to dissolve the formazan crystals. Absorbance of the resulting solution was measured by microplate reader (Biotech ELx800) at 540 nm wavelength. Growth inhibition rates were calculated with the absorbance. Half maximal inhibitory concentration (IC50) of each compound was calculated using GraphPad Prism, version 6.0.

[2] = tested on: SKOV3; details: read-out: IC50 SKOV3
Description: as §1

[3] = tested on: Hela; details: 48 h, read-out: IC50 Hela
Description: as §1

[4] = tested on: A2780; details: read-out: IC50 A2780
Description: as §1

[5] = SK-OV-3, SKOV-3 human ovarian cancer cell line, 48 h, MTT
[6] = Hela human cervical cancer cell line, MTT
[7] = MDA-MB-231 human breast cancer cell line, 48 h, MTT
[8] = A2780 human ovarian cancer cell line, 48 h, MTT

Compound	pIC50 [2, 5]	pIC50 [3, 6]	other results
C=C1C(=O)N(c2cc(OC)c(OC)c(OC)c2)[C@H]1c1ccc(OC)c(OCCN(C)C)c1 [Compound 14, (S)-4-(3-(2-(dimethylamino)ethoxy)-4-methoxyphenyl)-3-methylene-1-(3,4,5-trimethoxyphenyl)azetidin-2-one]	–	–	pIC50 ([1]; Homo sapiens, MDA-MB-231, 48 h): < 5.00; pIC50 ([2]; Homo sapiens, SK-OV-3, 48 h): < 5.00; pIC50 ([3]; Homo sapiens, HeLa): < 5.00; pIC50 ([4]; Homo sapiens, A2780, 48 h): < 5.00
C/C=C1\C(=O)N(c2cc(OC)c(OC)c(OC)c2)[C@H]1c1ccc(OC)c(O)c1 [Compound 55, (S,Z)-3-ethylidene-4-(3-hydroxy-4-methoxyphenyl)-1-(3,4,5-trimethoxyphenyl)azetidin-2-one]	5.56	5.58	–
COc1ccc([C@H]2[C@H](N=[N+]=[N-])C(=O)N2c2cc(OC)c(OC)c(OC)c2)cc1OCc1ccccc1 [Compound 75, (3S,4S)-3-azido-4-(3-(benzyloxy)-4-methoxyphenyl)-1-(3,4,5-trimethoxyphenyl)azetidin-2-one]	< 5.00	< 5.00	–
C=C1C(=O)N(c2cc(OC)c(OC)c(OC)c2)[C@H]1c1ccc(OC)c(OC(=O)c2ccc(OC)cc2)c1 [Compound 96, (S)-2-methoxy-5-(3-methylene-4-oxo-1-(3,4,5-trimethoxyphenyl)azetidin-2-yl)phenyl 4-methoxybenzoate]	6.59	6.86	pIC50 [1, 7]: 6.55; pIC50 [4, 8]: 6.90
C=C1C(=O)N(c2ccc(OC)cc2OC)[C@H]1c1ccc(OC)c(O)c1 [Compound 50, (S)-1-(2,4-dimethoxyphenyl)-4-(3-hydroxy-4-methoxyphenyl)-3-methyleneazetidin-2-one]	6.29	6.05	pIC50 [1, 7]: 6.54; pIC50 [4, 8]: 6.63
COc1ccc([C@H]2[C@H](Br)C(=O)N2c2cc(OC)c(OC)c(OC)c2)cc1O [Compound 66, (3S,4S)-3-bromo-4-(3-hydroxy-4-methoxyphenyl)-1-(3,4,5-trimethoxyphenyl)azetidin-2-one]	8.05	7.89	pIC50 [1, 7]: 8.00; pIC50 [4, 8]: 8.10
C=C1C(=O)N(c2cc(OC)c(OC)c(OC)c2)[C@H]1c1ccc(OC)c(OS(=O)(=O)c2ccc(NC(C)=O)cc2)c1 [Compound 30, (S)-2-methoxy-5-(3-methylene-4-oxo-1-(3,4,5-trimethoxyphenyl)azetidin-2-yl)phenyl 4-acetamidobenzenesulfonate]	4.92	4.80	pIC50 [1, 7]: 4.80; pIC50 [4, 8]: 4.91
COc1ccc([C@H]2[C@H](N)C(=O)N2c2cc(OC)c(OC)c(OC)c2)cc1OCc1ccccc1 [Compound 76, (3S,4S)-3-amino-4-(3-(benzyloxy)-4-methoxyphenyl)-1-(3,4,5-trimethoxyphenyl)azetidin-2-one]	5.07	5.13	–
C=C1C(=O)N(c2cc(OC)c(OC)c(OC)c2)[C@H]1c1ccc(OC)c(OCCCNC(=O)OCc2ccccc2)c1 [Compound 17, (S)-benzyl (3-(2-methoxy-5-(3-methylene-4-oxo-1-(3,4,5-trimethoxyphenyl)azetidin-2-yl)phenoxy)propyl)carbamate]	< 5.00	< 5.00	pIC50 [1, 7]: < 5.00; pIC50 [4, 8]: < 5.00
COc1ccc([C@@H]2[C@H](CO)C(=O)N2c2cc(OC)c(OC)c(OC)c2)cc1O [Compound 100, (3R,4S)-4-(3-hydroxy-4-methoxyphenyl)-3-(hydroxymethyl)-1-(3,4,5-trimethoxyphenyl)azetidin-2-one]	–	6.48	pIC50 [1, 7]: 6.42; pIC50 [4, 8]: 6.44
COc1ccc([C@H]2C(=O)C(=O)N2c2cc(OC)c(OC)c(OC)c2)cc1OC(C)=O [Compound 93, (S)-5-(3,4-dioxo-1-(3,4,5-trimethoxyphenyl)azetidin-2-yl)-2-methoxyphenyl acetate]	< 5.00	< 5.00	–
COc1ccc([C@@H]2N(c3cc(OC)c(OC)c(OC)c3)C(=O)[C@]23COC(=O)O3)cc1OC(C)=O [Compound 92, 5-((1S,4R)-3,6-dioxo-2-(3,4,5-trimethoxyphenyl)-5,7-dioxa-2-azaspiro[3.4]octan-1-yl)-2-methoxyphenyl acetate]	5.89	5.80	–
C=CC(=O)OC[C@@]1(OC(=O)C=C)C(=O)N(c2cc(OC)c(OC)c(OC)c2)[C@H]1c1ccc(OC)c(OC(=O)C=C)c1 [Compound 89, ((2S,3R)-3-(acryloyloxy)-2-(3-(acryloyloxy)-4-methoxyphenyl)-4-oxo-1-(3,4,5-trimethoxyphenyl)azetidin-3-yl)methyl acrylate]	5.65	5.61	–
COc1ccc([C@H]2[C@@H](Cc3ccc(O)cc3)C(=O)N2c2cc(OC)c(OC)c(OC)c2)cc1O [Compound 60, (3R,4R)-4-(3-hydroxy-4-methoxyphenyl)-3-(4-hydroxybenzyl)-1-(3,4,5-trimethoxyphenyl)azetidin-2-one]	5.54	5.14	–
COc1ccc([C@H]2[C@@H](OS(C)(=O)=O)C(=O)N2c2cc(OC)c(OC)c(OC)c2)cc1O [Compound 74, (3R,4S)-2-(3-(hydroxy)-4-methoxyphenyl)-4-oxo-1-(3,4,5-trimethoxyphenyl)azetidin-3-yl methanesulfonate]	6.01	6.12	–
COc1ccc([C@@H]2[C@@H](CO)C(=O)N2c2cc(OC)c(OC)c(OC)c2)cc1O [Compound 99, (3S,4S)-4-(3-hydroxy-4-methoxyphenyl)-3-(hydroxymethyl)-1-(3,4,5-trimethoxyphenyl)azetidin-2-one]	–	< 4.70	pIC50 [1, 7]: < 4.70; pIC50 [4, 8]: < 4.70
COc1ccc([C@@H]2N(c3cc(OC)c(OC)c(OC)c3)C(=O)[C@]2(C)O)cc1O [Compound 95, (3R,4S)-3-hydroxy-4-(3-hydroxy-4-methoxyphenyl)-3-methyl-1-(3,4,5-trimethoxyphenyl)azetidin-2-one]	6.99	6.67	–
C=CC(=O)N[C@@H]1C(=O)N(c2cc(OC)c(OC)c(OC)c2)[C@H]1c1ccc(OC)c(OC(=O)C=C)c1 [Compound 90, 5-((2S,3S)-3-acrylamido-4-oxo-1-(3,4,5-trimethoxyphenyl)azetidin-2-yl)-2-methoxyphenyl acrylate]	7.80	7.60	–
COc1ccc([C@@H]2N(c3cc(OC)c(OC)c(OC)c3)C(=O)[C@]2(O)CO)cc1OCc1ccccc1 [Compound 84, (3R,4S)-4-(3-(benzyloxy)-4-methoxyphenyl)-3-hydroxy-3-(hydroxymethyl)-1-(3,4,5-trimethoxyphenyl)azetidin-2-one]	5.63	< 5.00	–
COc1ccc([C@@H]2N(c3cc(OC)c(OC)c(OC)c3)C(=O)[C@]2(C)O)cc1OC(C)=O [Compound 94, 5-((2S,3R)-3-hydroxy-3-methyl-4-oxo-1-(3,4,5-trimethoxyphenyl)azetidin-2-yl)-2-methoxyphenyl acetate]	6.83	7.03	–
COc1ccc([C@H]2[C@@H](O)C(=O)N2c2cc(OC)c(OC)c(OC)c2)cc1OCc1ccccc1 [Compound 72, (3R,4S)-4-(3-(benzyloxy)-4-methoxyphenyl)-3-hydroxy-1-(3,4,5-trimethoxyphenyl)azetidin-2-one]	< 5.00	< 5.00	–
COc1ccc([C@H]2[C@@H](OS(C)(=O)=O)C(=O)N2c2cc(OC)c(OC)c(OC)c2)cc1OCc1ccccc1 [Compound 73, (3R,4S)-2-(3-(benzyloxy)-4-methoxyphenyl)-4-oxo-1-(3,4,5-trimethoxyphenyl)azetidin-3-yl methanesulfonate]	< 5.00	< 5.00	–
COc1ccc([C@@H]2N(c3cc(OC)c(OC)c(OC)c3)C(=O)[C@]2(O)CO)cc1OC(C)=O [Compound 82, 5-((2S,3R)-3-hydroxy-3-(hydroxymethyl)-4-oxo-1-(3,4,5-trimethoxyphenyl)azetidin-2-yl)-2-methoxyphenyl acetate]	6.20	6.06	–
C/C=C1/C(=O)N(c2cc(OC)c(OC)c(OC)c2)[C@H]1c1ccc(OC)c(O)c1 [Compound 56, (S,E)-3-ethylidene-4-(3-hydroxy-4-methoxyphenyl)-1-(3,4,5-trimethoxyphenyl)azetidin-2-one]	5.55	5.53	–
COc1ccc([C@@H]2N(c3cc(OC)c(OC)c(OC)c3)C(=O)[C@@]2(COC(C)=O)OC(C)=O)cc1OC(C)=O [Compound 83, ((2S,3R)-3-acetoxy-2-(3-acetoxy-4-methoxyphenyl)-4-oxo-1-(3,4,5-trimethoxyphenyl)azetidin-3-yl)methyl acetate]	< 5.00	< 5.00	–
C=C1CN(c2cc(OC)c(OC)c(OC)c2)[C@H]1c1ccc(OC)c(O)c1 [Compound 91, (S)-2-methoxy-5-(3-methylene-1-(3,4,5-trimethoxyphenyl)azetidin-2-yl)phenol]	6.61	6.60	–
COc1ccc([C@H]2[C@@H](CO)C(=O)N2c2cc(OC)c(OC)c(OC)c2)cc1O [Compound 68, (3S,4R)-4-(3-hydroxy-4-methoxyphenyl)-3-(hydroxymethyl)-1-(3,4,5-trimethoxyphenyl)azetidin-2-one]	–	6.45	pIC50 [1, 7]: 6.74; pIC50 [4, 8]: 6.66
